# Data reported in ChEMBL document CHEMBL5214933, “Discovery of Selenium-Containing STING Agonists as Orally Available Antitumor Agents” (J Med Chem, 2022).
# The source made the active and inactive calls. No cut-off for these calls is given here.
# Assays:
# [1] = target: T1, Stimulator of interferon genes protein (Homo sapiens, UniProt Q86WV6); test: Agonist activity at STING in human THP-1 cells assessed as increase in IFNbeta mRNA expression at 10 uM measured after 3 hrs by qRT-PCR analysis; assay type: cell-based; conditions: filed as agonist
# T1 sequence (Q86WV6 whole entry): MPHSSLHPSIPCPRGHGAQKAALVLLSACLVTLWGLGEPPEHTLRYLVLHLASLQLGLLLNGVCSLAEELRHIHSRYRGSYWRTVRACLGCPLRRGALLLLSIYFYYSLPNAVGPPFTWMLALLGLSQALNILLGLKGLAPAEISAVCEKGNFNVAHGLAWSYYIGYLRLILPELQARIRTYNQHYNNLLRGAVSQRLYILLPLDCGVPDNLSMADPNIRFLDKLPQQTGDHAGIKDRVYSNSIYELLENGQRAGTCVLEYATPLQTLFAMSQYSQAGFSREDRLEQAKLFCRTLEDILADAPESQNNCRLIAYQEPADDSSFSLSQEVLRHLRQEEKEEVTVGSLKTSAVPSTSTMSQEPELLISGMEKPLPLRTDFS
# MC-38 [2] = test: In vivo activation of STING in naive […] mouse implanted with mouse MC38 cells assessed as increase in IL-6 level in plasma at 30 mg/kg, po administered as single dose and measured after 4 hrs by ELISA; assay type: functional, organism-based
# [3] = system: Stimulator of interferon genes protein (Homo sapiens), Q86WV6 [UNDEFINED MUTATION]; test: Binding affinity to recombinant human STING AQ variant expressed in Escherichia coli BL21 (DE3) assessed as thermal stabilization by measuring change in melting temperature at 0.1 mM incubated for 30 mins by SYPRO orange dye based differential scanning fluorimetry assay
# Stimulator of interferon genes protein (Homo sapiens), Q86WV6 [UNDEFINED MUTATION], sequence (Q86WV6 whole entry, looked up, stated change not applied): as the sequence (Q86WV6 whole entry) above
# Mus musculus [4] = test: Immunostimulatory activity in naive […] mouse implanted with mouse MC38 cells assessed as increase in NK cells in spleen at 30 mg/kg, po by FACS analysis; assay type: functional, organism-based; conditions: MC-38
# [5] = Lipophilicity, logP of compound by RP-HPLC analysis; assay type: physicochemical
# [6] = Protein binding in plasma (unknown origin) assessed as unbound fraction at 2 uM incubated for 4 hrs under shaking condition by rapid equilibrium dialysis method; assay type: ADME, cell-free
# [7] = Volume of distribution at steady state in Sprague-Dawley rat at 50 mg/kg, po measured for 1440 mins by LC-MS/MS analysis; assay type: ADME, organism-based; conditions: in vivo, 24 h
# [8] = target: T2, Stimulator of interferon genes protein (Mus musculus) (UniProt Q3TBT3); test: Agonist activity at STING in mouse MEF cells assessed as increase in IFNbeta mRNA expression at 10 uM measured after 3 hrs by qRT-PCR analysis; assay type: cell-based; conditions: filed as agonist
# T2 sequence (whole entry): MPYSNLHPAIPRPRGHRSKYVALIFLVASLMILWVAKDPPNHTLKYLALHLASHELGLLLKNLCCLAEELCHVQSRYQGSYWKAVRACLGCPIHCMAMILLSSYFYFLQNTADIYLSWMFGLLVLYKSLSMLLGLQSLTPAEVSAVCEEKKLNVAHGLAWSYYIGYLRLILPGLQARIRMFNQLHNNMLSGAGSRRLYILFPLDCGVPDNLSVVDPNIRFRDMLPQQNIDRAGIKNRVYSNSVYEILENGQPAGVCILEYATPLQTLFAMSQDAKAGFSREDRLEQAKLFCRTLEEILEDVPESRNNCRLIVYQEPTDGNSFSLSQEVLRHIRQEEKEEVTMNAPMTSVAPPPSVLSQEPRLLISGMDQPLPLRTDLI
# [9] = AUC (0 to infinity) in Sprague-Dawley rat at 50 mg/kg, po measured for 1440 mins by LC-MS/MS analysis; assay type: ADME, organism-based; parameters: time 1440 min, dose 50 mg/kg, route po; conditions: in vivo
# hERG = hERG (Homo sapiens, UniProt Q12809); test: Inhibition of hERG expressed in HEK293 cells at 10 uM incubated for 5 mins by QPatch automated patch-clamp technique relative to control; assay type: toxicity, cell-based; conditions: HEK293 cells that express hERG
# hERG, sequence (Q12809 whole entry): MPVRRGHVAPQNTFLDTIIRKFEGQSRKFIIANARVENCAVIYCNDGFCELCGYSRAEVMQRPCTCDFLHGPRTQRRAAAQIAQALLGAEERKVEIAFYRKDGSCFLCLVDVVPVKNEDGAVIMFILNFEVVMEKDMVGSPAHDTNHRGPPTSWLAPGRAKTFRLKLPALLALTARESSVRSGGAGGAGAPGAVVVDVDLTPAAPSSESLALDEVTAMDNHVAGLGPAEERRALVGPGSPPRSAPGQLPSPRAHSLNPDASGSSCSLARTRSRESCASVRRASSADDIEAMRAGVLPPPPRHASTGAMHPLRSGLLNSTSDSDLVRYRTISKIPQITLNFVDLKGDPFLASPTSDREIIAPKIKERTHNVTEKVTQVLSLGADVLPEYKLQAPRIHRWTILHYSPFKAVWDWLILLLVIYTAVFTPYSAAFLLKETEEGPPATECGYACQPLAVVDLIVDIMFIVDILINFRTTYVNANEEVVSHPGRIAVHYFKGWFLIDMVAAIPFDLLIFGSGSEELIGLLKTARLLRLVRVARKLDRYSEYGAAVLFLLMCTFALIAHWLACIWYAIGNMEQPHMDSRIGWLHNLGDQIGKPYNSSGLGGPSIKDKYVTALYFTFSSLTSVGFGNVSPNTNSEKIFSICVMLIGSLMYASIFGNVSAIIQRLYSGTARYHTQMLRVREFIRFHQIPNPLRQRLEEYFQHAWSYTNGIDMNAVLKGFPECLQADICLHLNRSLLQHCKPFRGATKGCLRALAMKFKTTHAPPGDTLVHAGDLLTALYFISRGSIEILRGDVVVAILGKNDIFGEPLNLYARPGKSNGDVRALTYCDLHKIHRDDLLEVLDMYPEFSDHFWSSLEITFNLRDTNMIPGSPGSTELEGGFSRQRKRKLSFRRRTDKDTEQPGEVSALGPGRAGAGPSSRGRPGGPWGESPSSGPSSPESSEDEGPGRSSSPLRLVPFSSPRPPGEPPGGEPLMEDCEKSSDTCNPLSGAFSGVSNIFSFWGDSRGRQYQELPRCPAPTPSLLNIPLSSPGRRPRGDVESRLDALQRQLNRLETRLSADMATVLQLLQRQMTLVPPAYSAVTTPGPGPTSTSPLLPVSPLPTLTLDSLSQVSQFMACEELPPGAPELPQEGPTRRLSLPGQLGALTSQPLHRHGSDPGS
# CYP3A4 = CYP3A4 (Homo sapiens, UniProt P08684); test: Inhibition of recombinant CYP3A4 (unknown origin) using midazolam as substrate assessed as reduction in substrate hydroxylation at 10 uM incubated for 5 mins in presence of NADPH by LC-MS/MS analysis relative to control; assay type: ADME; conditions: recombinant CYP3A4, probe midazolam
# CYP3A4, sequence (P08684 whole entry): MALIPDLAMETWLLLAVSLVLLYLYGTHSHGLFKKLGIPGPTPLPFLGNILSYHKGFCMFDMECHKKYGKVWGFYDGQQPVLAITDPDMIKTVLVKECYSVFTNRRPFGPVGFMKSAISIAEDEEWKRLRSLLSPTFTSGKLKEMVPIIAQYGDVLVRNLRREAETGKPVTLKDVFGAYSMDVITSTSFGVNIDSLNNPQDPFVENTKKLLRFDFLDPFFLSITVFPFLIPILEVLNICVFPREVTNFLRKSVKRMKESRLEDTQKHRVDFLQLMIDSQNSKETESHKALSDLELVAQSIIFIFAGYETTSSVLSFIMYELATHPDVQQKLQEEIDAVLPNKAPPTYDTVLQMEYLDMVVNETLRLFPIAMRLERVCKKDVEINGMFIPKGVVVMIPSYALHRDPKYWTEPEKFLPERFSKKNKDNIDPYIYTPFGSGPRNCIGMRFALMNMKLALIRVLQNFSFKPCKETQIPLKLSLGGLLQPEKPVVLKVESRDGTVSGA
# [10] = target: T1, Stimulator of interferon genes protein; test: Agonist activity at STING in human THP-1 cells harboring IRF-inducible luciferase reporter construct assessed as increase in relative fluorescence unit incubated for 12 hrs by Quanti-luc reagent based assay; assay type: cell-based
# [11] = Half life in Sprague-Dawley rat at 5 mg/kg, iv measured for 1440 mins by LC-MS/MS analysis; assay type: ADME, organism-based; conditions: in vivo
# [12] = AUC (0 to infinity) in Sprague-Dawley rat at 5 mg/kg, iv measured for 1440 mins by LC-MS/MS analysis; assay type: ADME, organism-based; parameters: dose 5 mg/kg, time 1440 min, route iv; conditions: in vivo
# [13] = target: T2, Stimulator of interferon genes protein (Mus musculus); test: Agonist activity at STING in mouse MEF cells assessed as increase in IL6 mRNA expression at 10 uM measured after 3 hrs by qRT-PCR analysis; assay type: cell-based; conditions: filed as agonist
# [14] = Aqueous solubility of compound at 3 mg incubated for 24 hrs under shaking condition by RP-HPLC analysis; assay type: physicochemical; conditions: water
# CT26 [15] = test: In vivo activation of STING in naive BALB/c mouse implanted with mouse CT26 cells assessed as increase in IFN-gamma level in plasma at 20 mg/kg, po administered as single dose and measured after 4 hrs by ELISA; assay type: functional, organism-based
# CT26 [16] = test: Antitumor activity against mouse CT26 cells implanted in naive BALB/c mouse assessed as tumor growth regression at 20 mg/kg, po administered once every 5 days and measured after 30 days by digital caliper analysis relative to control; assay type: functional; conditions: time 30 day
# Mus musculus [17] = test: Immunostimulatory activity in naive […] mouse implanted with mouse MC38 cells assessed as increase in CD8 T cells in spleen at 30 mg/kg, po by FACS analysis; assay type: functional, organism-based; conditions: MC-38
# 4T1 [18] = test: Antitumor activity against mouse 4T1 cells implanted in naive BALB/c mouse assessed as increase in Ki67-positive CD8 T cells in tumor at 20 mg/kg, po administered once every 5 days by FACS analysis (reference value: 14%); assay type: functional; conditions: time 5 day
# 4T1-Luc = test: Antitumor activity against mouse 4T1-Luc cells implanted in naive BALB/c mouse assessed as tumor growth inhibition at 20 mg/kg, po administered once every 5 days and measured after 15 days by digital caliper analysis; assay type: functional, organism-based; conditions: time 15.0 day
# [19] = Cmax in Sprague-Dawley rat at 50 mg/kg, po measured for 1440 mins by LC-MS/MS analysis; assay type: ADME, organism-based; parameters: time 1440 min, dose 50 mg/kg, route po; conditions: in vivo
# [20] = Toxicity in immunocompetent BALB/c mouse assessed as reduction in body weight at 30 mg/kg, po measured after 3 days; assay type: organism-based; conditions: in vivo, 72 h, time 3 day
# [21] = target: T1, Stimulator of interferon genes protein; test: Agonist activity at STING in cGAS knockout human THP-1 cells harboring IRF-inducible luciferase reporter construct assessed as increase in relative fluorescence unit incubated for 12 hrs by Quanti-luc reagent based assay; assay type: cell-based
# 4T1 [22] = test: Antitumor activity against mouse 4T1 cells implanted in naive BALB/c mouse assessed as increase in Ki67-positive CD4 T cells in tumor at 20 mg/kg, po administered once every 5 days by FACS analysis (reference value: 4.4%); assay type: functional; conditions: time 5 day
# MC-38 [23] = test: Antitumor activity against mouse MC38 cells implanted in C57BL/6 mouse assessed as tumor growth regression at 30 mg/kg, po administered once every 3 days and measured after 21 days by digital caliper analysis relative to control; assay type: functional; conditions: time 21 day
# [24] = target: T2, Stimulator of interferon genes protein (Mus musculus); test: Agonist activity at STING in mouse RAW264.7 cells harboring IRF-inducible luciferase reporter construct assessed as increase in […] mRNA expression at 10 to 50 uM measured after 1 hr by qRT-PCR analysis; assay type: cell-based; conditions: filed as agonist, dose 10-50 µM
# [25] = Permeability of the compound in PBS buffer incubated for 5 hrs by PAMPA-based LC-MS/MS analysis; assay type: ADME; conditions: read-out: permeability
# [26] = Stability in human plasma assessed as interconversion into (S)-4-(5,6-Dimethoxybenzo[b]selenophen-2-yl)-2-ethyl-4-oxobutanoic acid incubated for 24 hrs by normal-phase HPLC analysis; assay type: ADME, cell-free
smiles,measurement,setting,value
CC[C@H](CC(=O)c1cc2cc(OC)c(OC)cc2[se]1)C(=O)O,Activity,[1],Active
same,Activity,MC-38 [2],Active
same,ΔTm,[3],30.3 °C
same,Activity,Mus musculus [4],Active
same,logP,[5],2.4
same,Fu,[6],0.07%
same,Vdss,[7],0.38 L/kg
same,Activity,[8],Active
same,AUC(0-inf),[9],316 µg·h/mL
same,"inhibition at 5 min, 10 µM",hERG,-0.7%
same,"inhibition at 5 min, 10 µM",CYP3A4,13.5%
same,EC50,[10],9.24 µM
same,half-life,[11],1.04 h
same,AUC(0-inf),[12],29.4 µg·h/mL
same,Activity,[13],Active
same,solubility thermodynamic at 24 h,[14],30 µg/mL
same,Activity,CT26 [15],Active
same,Activity,CT26 [16],100%
same,Activity,Mus musculus [17],Active
same,Activity,4T1 [18],25.2%
same,Activity,4T1-Luc,Active
same,Cmax,[19],58.2 µg/mL
same,Activity,[20],Non-Toxic
same,EC50,[21],5.19 µM
same,Activity,4T1 [22],25.4%
same,Activity,MC-38 [23],100%
same,Activity,[24],Active
same,Papp at 5 h,[25],2.04 ×10⁻⁶ cm/s
same,Stability,[26],Stable
